This is an account of results in patent publication US10179767B2 (GENENTECH, INC., priority 2015, dated 2019).

Where a name gives a salt, the structure may show the parent alone.

The target in this test is T1, hNav1.7 (Homo sapiens, UniProt Q15858).
T1 construct: expressed in transfected cells
T1 sequence (Q15858 whole entry): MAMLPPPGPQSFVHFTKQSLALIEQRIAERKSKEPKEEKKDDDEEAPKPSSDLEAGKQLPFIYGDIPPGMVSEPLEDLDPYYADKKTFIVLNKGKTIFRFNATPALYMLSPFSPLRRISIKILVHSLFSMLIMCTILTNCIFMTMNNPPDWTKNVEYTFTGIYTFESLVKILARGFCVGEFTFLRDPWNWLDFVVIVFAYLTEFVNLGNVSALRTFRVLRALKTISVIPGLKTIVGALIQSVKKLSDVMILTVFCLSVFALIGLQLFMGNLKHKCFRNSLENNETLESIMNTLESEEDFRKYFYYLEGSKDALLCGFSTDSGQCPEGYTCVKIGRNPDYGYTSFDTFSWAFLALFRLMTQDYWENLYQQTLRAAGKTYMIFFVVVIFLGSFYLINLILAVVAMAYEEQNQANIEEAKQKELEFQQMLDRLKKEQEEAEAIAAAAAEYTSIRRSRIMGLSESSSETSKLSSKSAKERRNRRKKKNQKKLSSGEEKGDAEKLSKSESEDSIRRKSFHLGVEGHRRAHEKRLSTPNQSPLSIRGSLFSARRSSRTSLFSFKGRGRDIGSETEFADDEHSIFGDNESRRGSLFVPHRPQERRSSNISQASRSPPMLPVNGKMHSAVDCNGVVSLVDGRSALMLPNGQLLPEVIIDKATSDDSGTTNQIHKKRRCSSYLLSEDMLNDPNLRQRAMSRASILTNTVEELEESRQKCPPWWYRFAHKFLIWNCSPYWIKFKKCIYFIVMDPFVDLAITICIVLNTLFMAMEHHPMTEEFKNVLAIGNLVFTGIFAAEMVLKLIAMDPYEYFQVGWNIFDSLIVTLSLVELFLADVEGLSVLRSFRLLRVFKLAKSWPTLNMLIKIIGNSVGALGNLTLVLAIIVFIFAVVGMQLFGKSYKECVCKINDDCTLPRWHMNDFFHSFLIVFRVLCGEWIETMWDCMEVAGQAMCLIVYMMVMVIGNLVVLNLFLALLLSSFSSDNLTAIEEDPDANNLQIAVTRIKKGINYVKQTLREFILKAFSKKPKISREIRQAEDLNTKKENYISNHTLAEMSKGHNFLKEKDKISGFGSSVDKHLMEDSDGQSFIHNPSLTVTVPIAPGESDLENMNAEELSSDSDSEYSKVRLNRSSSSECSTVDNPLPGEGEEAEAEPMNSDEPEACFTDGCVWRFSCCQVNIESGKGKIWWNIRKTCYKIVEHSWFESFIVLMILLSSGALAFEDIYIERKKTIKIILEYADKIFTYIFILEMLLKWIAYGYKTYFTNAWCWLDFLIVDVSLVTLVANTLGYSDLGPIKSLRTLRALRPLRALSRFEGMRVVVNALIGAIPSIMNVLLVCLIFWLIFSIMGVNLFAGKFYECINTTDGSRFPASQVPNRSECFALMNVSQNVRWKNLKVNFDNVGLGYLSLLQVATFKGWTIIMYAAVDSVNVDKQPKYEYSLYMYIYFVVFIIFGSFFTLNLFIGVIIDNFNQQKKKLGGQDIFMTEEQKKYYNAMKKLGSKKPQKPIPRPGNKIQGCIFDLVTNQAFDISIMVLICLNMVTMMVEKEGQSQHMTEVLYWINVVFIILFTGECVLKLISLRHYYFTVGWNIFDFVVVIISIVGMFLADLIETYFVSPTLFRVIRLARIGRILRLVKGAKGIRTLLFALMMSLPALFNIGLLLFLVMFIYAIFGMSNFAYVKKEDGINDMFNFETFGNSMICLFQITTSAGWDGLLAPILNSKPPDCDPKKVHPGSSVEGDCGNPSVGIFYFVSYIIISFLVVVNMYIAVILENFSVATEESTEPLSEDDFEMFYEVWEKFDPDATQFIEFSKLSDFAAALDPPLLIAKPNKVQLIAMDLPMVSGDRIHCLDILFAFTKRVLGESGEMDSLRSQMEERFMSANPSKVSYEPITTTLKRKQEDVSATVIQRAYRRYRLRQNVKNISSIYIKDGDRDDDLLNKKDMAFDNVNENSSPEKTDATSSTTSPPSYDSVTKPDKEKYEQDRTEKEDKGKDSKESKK
T1 sequence (Q07699 19-218 partner): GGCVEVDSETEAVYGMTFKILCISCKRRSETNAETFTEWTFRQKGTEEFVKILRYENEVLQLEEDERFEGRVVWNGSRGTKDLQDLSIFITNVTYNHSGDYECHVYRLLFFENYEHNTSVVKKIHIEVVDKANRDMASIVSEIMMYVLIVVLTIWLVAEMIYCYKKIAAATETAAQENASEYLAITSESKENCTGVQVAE
The experiment in a line: Tritiated sulfonamide binding to membranes from cells expressing hNav1.7 and the β1 subunit (Nav 1.7 ligand binding assay, competitive). The following applies: competition with 100 pM [3H]compound, room temperature, 18 h. The method, then: Tritiated Sulfonamide Binding to Membranes Isolated from Cells that Heterologously Express hNav1.7 and the β1 Subunit
Preparation of membranes containing recombinantly expressed sodium channels: Frozen recombinant cell pellets were thawed on ice and diluted to 4 times the cell pellet weight with ice cold 50 mM Tris HCl, pH 7.4 buffer. The cell suspensions were homogenized on ice using a motorized glass dounce homogeniser. Homogenates were further diluted 8.4 times with ice cold 50 mM Tris HCl, pH 7.4 buffer and then centrifuged at 200×g at 4° C. for 15 min. The supernatants were collected and centrifuged at 10000×g at 4° C. for 50 min. The pellets were then re-suspended in 100 mM NaCl, 20 mM Tris HCl, pH 7.4 buffer containing 1% v/v protease inhibitors (Calbiochem) and re-homogenized on ice. The homogenized membranes were then processed through a syringe equipped with a 26 gauge needle. Protein concentrations were determined by Bradford Assay and the membranes were stored at −80° C.
Radioligand Binding Studies:
Saturation experiments. A competitive NaV1.7 inhibitor having a methyl group was tritiated. Three tritiums were incorporated in place of methyl hydrogens to generate [^3H]compound. Binding of this radioligand was preformed in 5 mL borosilicate glass test tubes at room temperature. Binding was initiated by adding membranes to increasing concentrations of [^3H]compound in 100 mM NaCl, 20 mM Tris HCl, pH 7.4 buffer containing 0.01% w/v bovine serum albumin (BSA) for 18 h. Non-specific binding was determined in the presence of 1 μM unlabelled compound. After 18 h, the reactants were filtered through GF/C glass fiber filters presoaked in 0.5% w/v polyethylene imine Filters were washed with 15 mL ice cold 100 mM NaCl, 20 mM Tris HCl, pH7.4 buffer containing 0.25% BSA to separate bound from free ligand. [^3H]compound bound to filters was quantified by liquid scintillation counting.
Competitive Binding Experiments:
Binding reactions were preformed in 96-well polypropylene plates at room temperature for 18 h. In 360 μL, membranes were incubated with 100 pM [^3H]compound and increasing concentrations of Test Compound. Non-specific binding was defined in the presence of 1 μM unlabelled compound. Reactions were transferred and filtered through 96-well glass fiber/C filter plates presoaked with 0.5% polyethylene imine. The filtered reactions were washed 5 times with 200 μL ice cold buffer containing 0.25% BSA. Bound radioactivity was determined by liquid scintillation counting. Data Analysis: For saturation experiments, non-specific binding was subtracted from total binding to provide specific binding and these values were recalculated in terms of pmol ligand bound per mg protein. Saturation curves were constructed and dissociation constants were calculated using the single site ligand binding model: Beq=(Bmax*X)/(X+Kd), where Beq is the amount of ligand bound at equilibrium, Bmax is the maximum receptor density, Kd is the dissociation constant for the ligand, and X is the free ligand concentration. For competition studies percent inhibition was determined and IC50 values were calculated using a 4 parameter logistic model (% inhibition=(A+((B−A)/(1+((x/C)⨣D)))) using XLfit, where A and B are the maximal and minimum inhibition respectively, C is the IC50 concentration and D is the (Hill) slope.
Usually IC50 stands for the point on the concentration scale where inhibition reaches its midpoint. Regarding `C[C@@H](c1cc(Cl)cc(Cl)c1)N1CCC(COc2cc(F)c(C(=O)NS(=O)(=O)C3(F)CC3)cc2C2CC2)CC1` [Example 57, (S)-4-((2-cyclopropyl-5-fluoro-4-(((1-fluorocyclopropyl)sulfonyl)carbamoyl)phenoxy)methyl)-1-(1-(3,5-dichlorophenyl)ethyl)piperidin-1-ium trifluoroacetate], the IC50 came out at 8.6 nM.
With `C[C@@H](c1cc(Cl)cc(Cl)c1)N1CCC(F)(COc2cc(F)c(C(=O)NS(=O)(=O)N3CCC3)cc2C2CC2)CC1` [Example 58, (S)—N-(azetidin-1-ylsulfonyl)-5-cyclopropyl-4-((1-(1-(3,5-dichlorophenyl)ethyl)-4-fluoropiperidin-4-yl)methoxy)-2-fluorobenzamide] the figure was 5.6 nM; with `O=C(NS(=O)(=O)C1CC1)c1cc(C2CC2)c(OCC2(F)CCN(c3cc(C(F)(F)F)c(Cl)cn3)CC2)cc1F` [Example 59, 4-((1-(5-chloro-4-(trifluoromethyl)pyridin-2-yl)-4-fluoropiperidin-4-yl)methoxy)-5-cyclopropyl-N-(cyclopropylsulfonyl)-2-fluorobenzamide], 9.3 nM.
The compound `CS(=O)(=O)NC(=O)c1ccc(OCC2CCN(Cc3cc(C(F)(F)F)ccc3Cl)CC2)c(C2CC2)c1` [Example 60, 4-((1-(2-chloro-5-(trifluoromethyl)benzyl)piperidin-4-yl)methoxy)-3-cyclopropyl-N-(methylsulfonyl)benzamide] displayed an IC50 of 8.1 nM.
`CC(c1cc(Cl)cc(Cl)c1)N1CCC(COc2ccc(C(=O)NS(C)(=O)=O)cc2C2CC2)CC1` (stereo not shown) [Example 61, 3-cyclopropyl-4-((1-(1-(3,5-dichlorophenyl)ethyl)piperidin-4-yl)methoxy)-N-(methylsulfonyl)-benzamide] showed an IC50 of 10 nM.
In turn, `CS(=O)(=O)NC(=O)c1ccc(OCC2CCN(Cc3cc(C(F)(F)F)cc(Cl)c3F)CC2)c(C2CC2)c1` [Example 62, 4-((1-(3-chloro-2-fluoro-5-(trifluoromethyl)benzyl)piperidin-4-yl)methoxy)-3-cyclopropyl-N-(methylsulfonyl)benzamide] gave an IC50 of 9.8 nM.
With `CS(=O)(=O)NC(=O)c1cc(C2CC2)c(OCC2(F)CCN(Cc3cc(C(F)(F)F)ccc3Cl)CC2)cc1F` [Example 63, 4-((1-(2-chloro-5-(trifluoromethyl)benzyl)-4-fluoropiperidin-4-yl)methoxy)-5-cyclopropyl-2-fluoro-N-(methylsulfonyl)benzamide] the figure was 7 nM.
